Series [1] is classed as physicochemical. The note with it: acid environment / stomach.
For series [2] the following is noted: human body; cited from earlier work.

SMILES strings stand for the structures.

Consider `O=Cc1ccc2c(c1)OCC(=O)N1CCOCCOCCN(CCOCCOCC1)C(=O)CO2` [CE], for which the “removal of bound radium” value in series [1] is reported as “instable in the stomach, stable in the rest of the body”.

In the case of `CO` [Methanol], in series [2], the “rate of metabolism versus ethanol” value is given as “substantially more slowly”.

The record behind these values is patent publication US5053216A, “Radioactive Jomol, its derivatives, processes for the production of these compounds, their use and product” (priority 1985, dated 1991).
